Laboratory results reported in patent publication US20260137642A1 (CANCER PREVENTION PHARMACEUTICALS, INC., priority 2021, published 2026).

Experiments:
RINm5F insulinoma cells = conditions: cited from earlier work
T cells = conditions: mice; cited from earlier work
C-peptide = assay: Phase I/II trial in new onset T1D: C-peptide by 2-h MMTT; type: in vivo, human; conditions: for C-peptide area under the curve values compared to the placebo group: 6-month post-randomization visit
Method: This study was double-blind, placebo-controlled, 2:1 random assigned, phase I/II clinic trial for individuals with type 1 diabetes. The blinded dose-ranging study enrolled persons with new onset T1D with documented continued residual C-peptide production. […] After a 3 month wash-out period, the durability of effect was assessed. [table]

ODC enzyme activity = target: T1, ODC enzyme activity (Homo sapiens, UniProt P11926); conditions: oral, daily, humans; cited from earlier work
T1 construct: from tissue; host or cells: human epithelial tissues (in vivo, oral dosing); finding cited from the literature
T1 sequence (P11926 1-461): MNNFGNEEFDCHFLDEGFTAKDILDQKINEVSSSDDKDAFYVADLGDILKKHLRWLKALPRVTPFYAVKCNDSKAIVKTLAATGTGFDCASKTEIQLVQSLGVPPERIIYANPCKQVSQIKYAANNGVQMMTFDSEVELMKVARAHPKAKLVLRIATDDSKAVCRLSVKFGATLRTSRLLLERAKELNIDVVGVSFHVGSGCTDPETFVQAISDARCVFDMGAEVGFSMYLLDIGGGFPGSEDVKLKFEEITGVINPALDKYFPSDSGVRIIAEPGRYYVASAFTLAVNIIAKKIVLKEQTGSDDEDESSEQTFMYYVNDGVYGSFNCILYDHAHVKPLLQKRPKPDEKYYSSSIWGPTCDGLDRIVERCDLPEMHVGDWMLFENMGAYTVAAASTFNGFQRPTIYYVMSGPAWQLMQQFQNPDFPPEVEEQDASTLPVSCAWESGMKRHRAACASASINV

[1] = test system: APC-dependent intestinal tumorigenesis; conditions: mice; cited from earlier work
β cell function = conditions: mouse models including the NOD mouse; cited from earlier work

## NCCCC(N)(C(=O)O)C(F)F (centres unmarked) [eflornithine, 2,5-diamino-2-(difluoromethyl) pentanoic acid]
RINm5F insulinoma cells
  Insulin content and secretion: improves insulin content and secretion
T cells
  Effect on T cells: deplete T cells
C-peptide; 750 mg/m^2 dose
  C-peptide area under the curve values compared to the placebo group: significantly higher
C-peptide; 1000 mg/m^2 dose
  C-peptide area under the curve values compared to the placebo group: significantly higher
C-peptide; at higher doses, 3-month oral course
  β cell function compared to placebo: greater β cell function compared to placebo
ODC enzyme activity
  ODC enzyme activity and polyamine contents in epithelial tissues: inhibits ODC enzyme activity and polyamine contents
[1]
  APC-dependent intestinal tumorigenesis: decrease APC-dependent intestinal tumorigenesis
β cell function
  β cell function and diabetes onset: preserves β cell function and delays diabetes onset
